Assay results as given in BindingDB's records for PubMed 9618428 (Glaxo Wellcome Research and Development, 1998).
“And” between values parts separate entries of the source, which are not always exact repeats. Identical values can stand only once.

Columns and labels:
[1] = target: Melatonin receptor type 1A (Sus scrofa, UniProt O02781)
[2] = target: T1, Melatonin receptor type 1B (Homo sapiens, UniProt P49286)
T1 sequence (P49286 whole entry): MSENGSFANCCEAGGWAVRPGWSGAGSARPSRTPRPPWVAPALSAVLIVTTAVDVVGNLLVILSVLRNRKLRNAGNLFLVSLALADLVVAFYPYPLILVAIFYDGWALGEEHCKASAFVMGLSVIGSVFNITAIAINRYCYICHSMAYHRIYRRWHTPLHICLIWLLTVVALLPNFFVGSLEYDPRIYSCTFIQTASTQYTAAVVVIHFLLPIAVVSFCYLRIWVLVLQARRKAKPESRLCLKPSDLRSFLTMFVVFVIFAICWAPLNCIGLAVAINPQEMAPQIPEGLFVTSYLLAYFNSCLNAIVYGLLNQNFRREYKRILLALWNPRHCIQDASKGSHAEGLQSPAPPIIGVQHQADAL

[3] = target: Melatonin receptor type 1A (Homo sapiens, UniProt P48039)
Chain of Melatonin receptor type 1A (Homo sapiens, UniProt P48039) (P48039 whole entry): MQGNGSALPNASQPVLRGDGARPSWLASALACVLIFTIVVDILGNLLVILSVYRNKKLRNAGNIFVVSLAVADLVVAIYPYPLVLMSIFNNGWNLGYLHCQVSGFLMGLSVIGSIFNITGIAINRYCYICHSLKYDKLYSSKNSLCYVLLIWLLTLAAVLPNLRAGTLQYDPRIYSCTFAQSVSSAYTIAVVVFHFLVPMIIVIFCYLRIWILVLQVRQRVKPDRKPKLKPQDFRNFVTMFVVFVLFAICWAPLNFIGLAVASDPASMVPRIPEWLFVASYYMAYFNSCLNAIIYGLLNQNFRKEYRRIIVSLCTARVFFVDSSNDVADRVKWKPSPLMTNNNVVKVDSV

Chain of Melatonin receptor type 1A (Sus scrofa, UniProt O02781) (O02781 whole entry): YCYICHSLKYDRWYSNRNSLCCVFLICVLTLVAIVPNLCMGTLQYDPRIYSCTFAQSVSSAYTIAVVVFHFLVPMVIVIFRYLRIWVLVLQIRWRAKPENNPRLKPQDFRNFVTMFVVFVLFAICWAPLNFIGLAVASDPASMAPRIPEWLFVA

| Compound | Ki [1] | Ki [2] | Ki [3] |
| --- | --- | --- | --- |
| CC(=O)NCCN1CCc2ccc3c(c21)CCO3 [NSC_5311134] | 0.61 nM and 0.33 nM | 0.16 nM | 0.14 nM |
| COc1cc2c(CCNC(C)=O)c[nH]c2cc1Cl | 0.46 nM and 0.74 nM |  |  |
| COc1cc2c(CCNC(C)=O)c[nH]c2cc1O [melatonin, 6-Hydroxy] | 10.2 nM and 25.1 nM | 2.23 nM and 1.69 nM | 0.54 nM |
| CC(=O)NCCc1c[nH]c2ccc(O)cc12 [N-Acetyltryptamine,5-Hydroxy] | 398 nM and 347 nM | 302 nM and 148 nM | 79.4 nM |

The next lines start with the values.

| Ki [1] | Ki [2] | Ki [3] | Compound |
| --- | --- | --- | --- |
| 933 nM and 676 nM |  |  | CC(=O)NCCc1c(Cc2ccccc2)[nH]c2ccccc12 [CAS_117946-91-5] |
| 0.25 nM and 0.24 nM |  |  | COc1ccc2[nH]cc(CCNC(C)=O)c2c1 |
| 0.03 nM and 0.04 nM |  |  | COc1ccc2[nH]c(I)c(CCNC(C)=O)c2c1 |
